Activity calls are given as the source filed them. No cut-off for these calls is given here.
Columns and labels:
[1] = system: Osimertinib-resistant NCI-H1975 cell; assay: Antiproliferative activity against human Osimertinib-resistant NCI-H1975 cell (AZDR) incubated for 72 hrs by MTT assay; type: functional, cell-based
NCI-H1975 = assay: Antiproliferative activity against human NCI-H1975 cells incubated for 72 hrs by MTT assay; type: functional, cell-based; settings: NCI-H1975, 72 h
MCF7 = assay: Antiproliferative activity against human MCF7 cells incubated for 72 hrs by MTT assay; type: functional, cell-based; settings: MCF7, 72 h
[2] = system: Osimertinib-resistant NCI-H1975 cell; assay: Induction of apoptosis in human Osimertinib-resistant NCI-H1975 cell (AZDR) assessed as early apoptotic cells at 1 uM incubated for 24 hrs by Annexin V and propidium iodide staining based flow cytometry analysis (reference value: 3.38%); type: functional
[3] = system: Osimertinib-resistant NCI-H1975 cell; assay: Induction of apoptosis in human Osimertinib-resistant NCI-H1975 cell (AZDR) assessed as late apoptotic cells at 1 uM incubated for 24 hrs by Annexin V and propidium iodide staining based flow cytometry analysis (reference value: 1.06%); type: functional
[4] = system: Osimertinib-resistant NCI-H1975 cell; assay: Induction of apoptosis in human Osimertinib-resistant NCI-H1975 cell (AZDR) assessed as early apoptotic cells at 1 uM incubated for 24 hrs in presence of osimertinib by Annexin V and propidium iodide staining based flow cytometry analysis (reference value: 3.38%); type: functional
[5] = system: Osimertinib-resistant NCI-H1975 cell; assay: Induction of apoptosis in human Osimertinib-resistant NCI-H1975 cell (AZDR) assessed as late apoptotic cells at 1 uM incubated for 24 hrs in presence of osimertinib by Annexin V and propidium iodide staining based flow cytometry analysis (reference value: 1.06%); type: functional
Mus musculus [6] = assay: In vivo inhibition of EGFR L858R/T790M mutant in BALB/c nude mouse xenografted with human Osimertinib-resistant NCI-H1975 cell (AZDR) assessed as downregulation of EGFR phosphorylation at 10 mg/kg, po measured after 22 days; type: functional, organism-based; settings: time 22.0 day
Mus musculus [7] = assay: In vivo inhibition of EGFR L858R/T790M mutant in BALB/c nude mouse xenografted with human Osimertinib-resistant NCI-H1975 cell (AZDR) assessed as downregulation of AKT phosphorylation at 10 mg/kg, po measured after 22 days; type: functional, organism-based; settings: time 22.0 day
Mus musculus [8] = assay: In vivo inhibition of ACK1 in BALB/c nude mouse xenografted with human Osimertinib-resistant NCI-H1975 cell (AZDR) assessed as downregulation of ACK1 phosphorylation at 10 mg/kg, po measured after 22 days; type: functional, organism-based; settings: time 22.0 day
[9] = system: Osimertinib-resistant NCI-H1975 cell; assay: Anticancer activity against human Osimertinib-resistant NCI-H1975 cell (AZDR) xenografted in BALB/c nude mouse model assessed as increase in tumor cell apoptosis at 10 mg/kg, po by TUNEL assay; type: functional, organism-based
[10] = system: Osimertinib-resistant NCI-H1975 cell; assay: Anticancer activity against human Osimertinib-resistant NCI-H1975 cell (AZDR) xenografted in BALB/c nude mouse model assessed as increase tumor cell apoptosis at 10 mg/kg, po in presence of osimertinib by TUNEL assay; type: functional, organism-based
[11] = system: Osimertinib-resistant NCI-H1975 cell; assay: Induction of apoptosis in human Osimertinib-resistant NCI-H1975 cell (AZDR) assessed as early apoptotic cells at 1 uM incubated for 24 hrs in presence of dasatinib by Annexin V and propidium iodide staining based flow cytometry analysis (reference value: 3.38%); type: functional
[12] = system: Osimertinib-resistant NCI-H1975 cell; assay: Induction of apoptosis in human Osimertinib-resistant NCI-H1975 cell (AZDR) assessed as late apoptotic cells at 1 uM incubated for 24 hrs in presence of dasatinib by Annexin V and propidium iodide staining based flow cytometry analysis (reference value: 1.06%); type: functional
[13] = system: Osimertinib-resistant NCI-H1975 cell; assay: Anticancer activity against human Osimertinib-resistant NCI-H1975 cell (AZDR) xenografted in BALB/c nude mouse model assessed as increase in tumor cell apoptosis at 10 mg/kg, po in presence of dasatinib by TUNEL assay; type: functional, organism-based

SMILES | IC50 [1] | IC50 (NCI-H1975) | IC50 (MCF7) | also measured
C=CC(=O)Nc1cccc(Nc2nc(Nc3cn(C)nc3C(F)(F)F)nc3ccc(Cl)cc23)c1 | 3.36 µM | 1.02 µM | 5.72 µM | 
C=CC(=O)Nc1cccc(Nc2nc(Nc3ccc(C)cc3)nc3ccc(Cl)cc23)c1 | 6.56 µM | 2.29 µM | 4.24 µM | 
C=CC(=O)Nc1cccc(Nc2nc(Nc3cnn(C)c3)nc3cc(F)ccc23)c1 | 17.7 µM | 1.28 µM | 11.1 µM | 
C=CC(=O)Nc1cccc(Nc2nc(Nc3ccc(N(C)CCN(C)C)cc3)nc3ccc(Cl)cc23)c1 | 1.89 µM | 1.24 µM | 2.53 µM | 
C=CC(=O)Nc1cccc(Nc2nc(Nc3cnn(Cc4ccccc4)c3)nc3ccc(Cl)cc23)c1 | 3.83 µM | 3.98 µM | 1.3 µM | 
C=CC(=O)Nc1cccc(Nc2nc(Nc3cnn(C)c3)nc3ccc(F)cc23)c1 | 1.52 µM | 8.76 µM | 2.36 µM | 
C=CC(=O)Nc1cccc(Nc2nc(Nc3cnn(CC(F)(F)F)c3)nc3ccc(Cl)cc23)c1 | 3.55 µM | 2.15 µM | 6.83 µM | 
C=CC(=O)Nc1cccc(Nc2nc(Nc3cnn(C)c3)nc3cccc(F)c23)c1 | 3.44 µM | 1.06 µM | 9.16 µM | 
C=CC(=O)Nc1cccc(Nc2nc(Nc3cnn(-c4ccccc4)c3)nc3ccc(Cl)cc23)c1 | 8.13 µM | 10.1 µM | 15.2 µM | 
C=CC(=O)Nc1cccc(Nc2nc(Nc3cnn(C)c3)nc3ccc(Br)cc23)c1 | 2.35 µM | 1.1 µM | 1.64 µM | 
C=CC(=O)Nc1cccc(Nc2nc(Nc3cnn(C)c3)nc3cc(OC)ccc23)c1 | 2.5 µM | 1.38 µM | 1.34 µM | 
C=CC(=O)Nc1cccc(Nc2nc(Nc3cnn(CCOC)c3)nc3ccc(Cl)cc23)c1 | 3.71 µM | 3.18 µM | 6.56 µM | 
C=CC(=O)Nc1ccc(Nc2nc(Nc3cnn(C)c3)nc3ccc(Cl)cc23)cc1 | 7.35 µM | 7.58 µM | 3.58 µM | 
C=CC(=O)Nc1cccc(Nc2nc(Nc3ccc(-n4cccn4)cc3)nc3ccc(Cl)cc23)c1 | 5.84 µM | 1.51 µM | 4.78 µM | 
C=CC(=O)Nc1cccc(Nc2nc(Nc3cnn(C)c3)nc3cc(C)ccc23)c1 | 3.34 µM | 1.59 µM | 0.52 µM | 
C=CC(=O)Nc1cccc(Nc2nc(Nc3ccccc3C)nc3ccc(Cl)cc23)c1 | 7.31 µM | 6.58 µM | 8.26 µM | 
C=CC(=O)Nc1cccc(Nc2nc(Nc3cnn(CCN4CCOCC4)c3)nc3ccc(Cl)cc23)c1 | 3.45 µM | 1.7 µM | 8.78 µM | 
C=CC(=O)Nc1cccc(Nc2nc(Nc3cnn(C)c3)nc3ccc(I)cc23)c1 | 0.98 µM | 0.75 µM | 1.84 µM | 
C=CC(=O)Nc1cccc(Nc2nc(NCCn3cccn3)nc3ccc(Cl)cc23)c1 | 22.8 µM | 10.1 µM | 13.7 µM | 
C=CC(=O)Nc1cccc(Nc2nc(Nc3c(C)nn(C)c3C)nc3ccc(Cl)cc23)c1 | 1.62 µM | 2.89 µM | 4.4 µM | 
C=CC(=O)Nc1cccc(Nc2nc(Nc3cnn(C4CCOCC4)c3)nc3ccc(Cl)cc23)c1 | 3.72 µM | 1.4 µM | 2.91 µM | 
C=CC(=O)Nc1cccc(Nc2nc(Nc3cn(C)nc3C)nc3ccc(Cl)cc23)c1 | > 20 µM | 4.05 µM | 15 µM | 
C=CC(=O)Nc1cccc(Nc2nc(Nc3cnn(C(C)(C)C)c3)nc3ccc(Cl)cc23)c1 | 3.94 µM | 2.1 µM | 5.64 µM | 

SMILES | IC50 [1] | IC50 (NCI-H1975) | IC50 (MCF7) | also measured
Cc1nc(Nc2ncc(C(=O)Nc3c(C)cccc3Cl)s2)cc(N2CCN(CCO)CC2)n1 [DASATINIB ANHYDROUS] |  |  |  | Activity [2]: 10.2%; Activity [3]: 7.4%; Activity [4]: 19.6%; Activity [5]: 20.6%; inhibition (Mus musculus [6]): Active; inhibition (Mus musculus [7]): inactive; inhibition (Mus musculus [8]): Active; Activity [9]: inactive; Activity [10]: Active
C=CC(=O)Nc1cccc(Nc2nc(Nc3cccc(Br)c3)nc3ccc(Cl)cc23)c1 | 2.8 µM | 2.94 µM | 3.58 µM | 
C=CC(=O)Nc1cccc(Nc2nc(Nc3cn(CC)nc3C)nc3ccc(Cl)cc23)c1 | 2.14 µM | > 20 µM | 10.8 µM | 
C=CC(=O)Nc1cccc(Nc2nc(Nc3cnn(C)c3)nc3cccc(Cl)c23)c1 | 2.44 µM | 0.81 µM | 1.85 µM | 
C=CC(=O)Nc1cccc(Nc2nc(Nc3cn[nH]c3)nc3ccc(Cl)cc23)c1 | 4.68 µM | 2.56 µM | 5.37 µM | 
C=CC(=O)Nc1cccc(Nc2nc(Nc3cnn(C)c3)nc3ccc(Cl)cc23)c1 | 1.04 µM | 0.95 µM | 1.23 µM | 
C=CC(=O)Nc1cc(Nc2nccc(-c3cn(C)c4ccccc34)n2)c(OC)cc1N(C)CCN(C)C [OSIMERTINIB] | 4 µM | 0.015 µM | 1.16 µM | Activity [2]: 2.86%; Activity [3]: 1.22%; Activity [11]: 19.6%; Activity [12]: 20.6%; inhibition (Mus musculus [6]): Active; inhibition (Mus musculus [7]): inactive; inhibition (Mus musculus [8]): Active; Activity [9]: inactive; Activity [13]: Active
C=CC(=O)Nc1ccccc1Nc1nc(Nc2cnn(C)c2)nc2ccc(Cl)cc12 | 6.53 µM | 5.63 µM | 4.26 µM | 
C=CC(=O)Nc1cccc(Nc2nc(Nc3cnn(C)c3)nc3ccc(OC)cc23)c1 | 4.64 µM | 1.52 µM | 2.2 µM | 
C=CC(=O)Nc1cccc(Nc2nc(Nc3cc(C(F)(F)F)n(C)n3)nc3ccc(Cl)cc23)c1 | 3.45 µM | 2.36 µM | 10 µM | 
C=CC(=O)Nc1cccc(Nc2nc(Nc3ccnn3C)nc3ccc(Cl)cc23)c1 | 9.47 µM | 4.25 µM | 6.89 µM | 
C=CC(=O)Nc1cccc(Nc2nc(Nc3cnn(C4CCN(C)CC4)c3)nc3ccc(Cl)cc23)c1 | 4.53 µM | 2.35 µM | 5.26 µM | 
C=CC(=O)Nc1cccc(Nc2nc(Nc3cnn(C)c3)nc3c(Cl)cccc23)c1 | > 20 µM | 2.21 µM | 1.72 µM | 
C=CC(=O)Nc1cccc(Nc2nc(Nc3ccn(C)n3)nc3ccc(Cl)cc23)c1 | 3.55 µM | 1.37 µM | 12.4 µM | 
C=CC(=O)Nc1cccc(Nc2nc(Nc3cnn(C)c3)nc3ccccc23)c1 | 2.81 µM | 0.94 µM | 4.6 µM | 
CCC(=O)Nc1cccc(Nc2nc(Nc3cnn(C)c3)nc3ccc(Cl)cc23)c1 | 9.58 µM | 6.35 µM | 4.68 µM | 
C=CC(=O)Nc1cccc(Nc2nc(Nc3cnn(C)c3)nc3c(F)cccc23)c1 | 3.34 µM | 2.11 µM | 3.74 µM | 
C=CC(=O)Nc1cccc(Nc2nc(Nc3cnn(C)c3C)nc3ccc(Cl)cc23)c1 | 3.4 µM | 1.02 µM | 3.24 µM | 
C=CC(=O)Nc1cccc(Nc2nc(Nc3cccc(C)c3)nc3ccc(Cl)cc23)c1 | 4.77 µM | 2.68 µM | 7.73 µM | 
C=CC(=O)Nc1cccc(Nc2nc(Nc3cnn(C)c3)nc3cc(Cl)ccc23)c1 | 13.8 µM | 15 µM | 2.95 µM | 
C=CC(=O)Nc1cccc(Nc2nc(Nc3cnn(C)c3)nc3ccc(C(F)(F)F)cc23)c1 | 2.75 µM | 1.56 µM | 18.2 µM | 
C=CC(=O)Nc1cccc(Nc2nc(Nc3cnn(C)c3)nc3ccc(C)cc23)c1 | 2.51 µM | 1.86 µM | 1.24 µM | 
C=CC(=O)Nc1cccc(Nc2nc(Nc3cnn(C)c3)nc3cc(C(F)(F)F)ccc23)c1 | 2.62 µM | 1.3 µM | 1.16 µM | 
